Drawing on BindingDB's records for doi:10.1002/1439-7633(20010601)2 (Universit&Eacute, 2001), this text covers IC50 for four molecules.

Molecules are shown by their SMILES.

What is called IC50 is the concentration that inhibits the measured activity by half.

Acetylcholinesterase, sequence (P07692 whole entry): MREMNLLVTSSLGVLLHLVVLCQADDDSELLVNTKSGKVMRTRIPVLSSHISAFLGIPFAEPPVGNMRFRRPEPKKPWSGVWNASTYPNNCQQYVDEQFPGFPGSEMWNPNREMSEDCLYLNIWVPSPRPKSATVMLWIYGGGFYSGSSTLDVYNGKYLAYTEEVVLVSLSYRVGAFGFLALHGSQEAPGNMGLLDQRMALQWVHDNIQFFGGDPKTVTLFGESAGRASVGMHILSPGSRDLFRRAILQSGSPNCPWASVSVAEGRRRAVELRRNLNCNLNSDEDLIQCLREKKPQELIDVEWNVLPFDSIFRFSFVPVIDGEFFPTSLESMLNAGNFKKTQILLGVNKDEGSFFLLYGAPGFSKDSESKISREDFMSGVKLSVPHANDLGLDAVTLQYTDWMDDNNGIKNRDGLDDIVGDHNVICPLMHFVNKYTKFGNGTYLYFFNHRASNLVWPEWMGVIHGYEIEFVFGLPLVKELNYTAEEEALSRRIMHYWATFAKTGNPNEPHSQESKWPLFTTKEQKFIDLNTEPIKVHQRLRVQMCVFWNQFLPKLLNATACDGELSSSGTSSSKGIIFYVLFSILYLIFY

The target of the experiment is Acetylcholinesterase (Torpedo marmorata, UniProt P07692). Put plainly: Enzyme Assay. As to conditions: pH 4; 25 °C. As for the experimental part:
The inhibitory activity of the equilibrated mixtures was determined. The activity of AChE was monitored by following the linear change in absorbance at 412 nm over 30s at 25C.
For the molecule `c1cc[n+](CCCCCCCCCC[n+]2ccccc2)cc1` [1,10-di(1-pyridiniumyl)decane; diiodide], the IC50 stood at 25.8 nM. In other words, the double-digit nanomolar range.

Turning to `O=C(C[n+]1ccccc1)N/N=C/c1ccc(/C=N/NC(=O)C[n+]2ccccc2)cc1` [Terephthalaldehyde, 4-I-4], inhibition was half-maximal at 2.3 nM (IC50).

For the molecule `C[N+](C)(C)CCCCCCCCCCCC[N+](C)(C)C` [N1,N1,N1,N12,N12,N12-hexamethyldodecane-1,12-diaminium bromide], it took 93.2 nM to reach half-maximal inhibition (IC50).

`c1cc[n+](CCCCCCCCCCCC[n+]2ccccc2)cc1` [1,12-Bis(pyridinium)dodecane] returned an IC50 of 16 nM.
